{"source": "patent US5439687A", "about": "“Dosage forms having zero-order dihydropyridine calcium antagonist release” (priority 1992, dated 1995)", "origin": "cited, not measured here", "settings": "rapid influx rate with high plasma level peaks", "data": [{"smiles": "COC(=O)C1=C(C)NC(C)=C(C(=O)OC)C1c1ccccc1[N+](=O)[O-]", "note": "[nifedipine]", "values": [{"measurement": "Side-effect rate and blood pressure lowering effectiveness", "result": "associated with an increased side-effect rate (tachycardia) and reduced effectiveness in lowering blood pressure"}]}]}
